Counter-ions that a name gives are not always drawn.
Molecular target: T1, calmodulin (Bos taurus, UniProt P62157)
T1 construct: a sufficient amount of bovine brain calmodulin; from tissue; host or cells: bovine brain (calmodulin); bovine heart (PDE)
Assay: inhibition of calmodulin activation of cyclic nucleotide phosphodiesterase (PDE), hydrolysis of [3H] cAMP
Assay type: biochemical, bovine
Details: Table 1; mean ± S.E. of three assays; * (β CHCH 4 6) mean of two; read-out: IC50 in μM (x ± SE)

| IC50 | SMILES |
| --- | --- |
| 22.1 ± 3 µM | c1ccc2cc(SCCCCCN3CCCCC3)ccc2c1 [β 5 piperdine] |
| 2.2 ± 0.3 µM | C(=Cc1ccc2ccccc2c1)CCCCN1CCCCC1 [β CHCH 4 6, N-6-(naphth-2-yl)hex-5-enylpiperidine oxalate] |
| 39.1 ± 8.9 µM | c1ccc2c(OCCCCCN3CCCCC3)cccc2c1 [α 5 CH2] |

Same assay, conditions: Table 2; mean ± S.E. of three assays; * (α 3 CH2, β 2 CH2, β 3 CH2, α 3 0, β 2 0) mean of two; read-out: IC50 in μM (x ± SE)

| SMILES | IC50 |
| --- | --- |
| c1ccc2c(OCCCN3CCOCC3)cccc2c1 [α 3 0] | 217 ± 24.7 µM |
| c1ccc2c(OCCCN3CCCCC3)cccc2c1 [α 3 CH2] | 106 ± 18 µM |
| c1ccc2c(OCCN3CCOCC3)cccc2c1 [α 2 0] | > 250 µM |
| c1ccc2c(OCCCCCCCCN3CCCCC3)cccc2c1 [α 8 CH2] | 5.3 ± 0.3 µM |
| c1ccc2c(OCCCCN3CCOCC3)cccc2c1 [α 4 0] | 53.2 ± 10.5 µM |
| c1ccc2cc(OCCCCCN3CCOCC3)ccc2c1 [β 5 0] | 72.7 ± 9.4 µM |
| c1ccc2cc(OCCN3CCCCC3)ccc2c1 [β 2 CH2] | > 250 µM |
| c1ccc2cc(OCCCCN3CCCCC3)ccc2c1 [β 4 CH2] | 55.8 ± 6 µM |
| c1ccc2c(OCCCCN3CCCCC3)cccc2c1 [α 4 CH2, -4-(naphth-1-yloxy)butylpiperidine oxalate] | 7.4 ± 0.5 µM |
| c1ccc2cc(OCCN3CCOCC3)ccc2c1 [β 2 0] | > 250 µM |
| c1ccc2cc(OCCCN3CCOCC3)ccc2c1 [β 3 0] | > 250 µM |
| c1ccc2cc(OCCCCN3CCOCC3)ccc2c1 [β 4 0] | 85.6 ± 7 µM |

Other lines, results leading:

| IC50 | SMILES |
| --- | --- |
| 29.2 ± 1.4 µM | c1ccc2cc(OCCCN3CCCCC3)ccc2c1 [β 3 CH2] |
| 28.5 ± 2 µM | c1ccc2c(OCCCCCCN3CCCCC3)cccc2c1 [α 6 CH2] |
| 4.7 ± 0.3 µM | c1ccc2c(OCCCCCCCN3CCCCC3)cccc2c1 [α 7 CH2, N-7-(naphth-1-yloxy)heptylpiperidine hydrochloride] |
| 152 ± 18.8 µM | c1ccc2c(OCCN3CCCCC3)cccc2c1 [α 2 CH2] |
| 42.3 ± 9.1 µM | c1ccc2c(OCCCCCN3CCOCC3)cccc2c1 [α 5 0] |
| 53.9 ± 1.6 µM | c1ccc2cc(OCCCCCN3CCCCC3)ccc2c1 [β 5 CH2] |

Same assay, conditions: Table 3; mean ± S.E. of three assays; * (β 6 piperdine) mean of two; read-out: IC50 in μM (x ± SE)

| SMILES | IC50 |
| --- | --- |
| c1ccc2cc(SCCCN3CCCCC3)ccc2c1 [β 3 piperdine] | 77.7 ± 4.1 µM |
| c1ccc2cc(SCCCCN3CCCC3)ccc2c1 [β 4 pyrrolidine] | 18 ± 1.3 µM |
| c1ccc2cc(SCCCCN3CCCCC3)ccc2c1 [β 4 piperdine] | 12.3 ± 2.6 µM |

Results, then the molecule that gave them:

| IC50 | SMILES |
| --- | --- |
| 23.6 ± 1.6 µM | c1ccc2c(SCCCCN3CCCCC3)cccc2c1 [α 4 piperdine] |
| 20.1 ± 2.25 µM | c1ccc2cc(SCCCCCN3CCOCC3)ccc2c1 [β 5 morpholine] |
| 12.5 ± 1.5 µM | c1ccc2cc(SCCCCCCN3CCCCC3)ccc2c1 [β 6 piperdine] |

Same assay, conditions: Table 4, heteroatoms in the side chain; mean ± S.E.; read-out: IC50 in μM (x ± SE)

| IC50 | SMILES |
| --- | --- |
| 41.7 ± 6.2 µM | c1ccc2c(OCCSCCN3CCCCC3)cccc2c1 |
| 11.5 ± 1.6 µM | c1ccc2c(CCNCCCCCN3CCCCC3)cccc2c1 |

Same assay, conditions: Table 5, effect of base strength of the terminal amine; mean ± S.E.; read-out: IC50 in μM (x ± S.E.)

| IC50 | SMILES |
| --- | --- |
| 68.3 ± 6.7 µM | c1ccc2c(OCCCCn3ccnc3)cccc2c1 [imidazole] |
| 3.85 ± 0.2 µM | NCCCCOc1cccc2ccccc12 [NH2] |
| 4 ± 0.2 µM | c1ccc2c(OCCCCN3CCCC3)cccc2c1 [pyrrolidine, N-4-(naphth-1-yloxy)butylpyrrolidine] |

Same assay, conditions: Table 6, halogen substitution on the naphthalene ring; mean ± S.E.; read-out: IC50 in μM (x ± SE)

| IC50 | SMILES |
| --- | --- |
| 9.3 ± 2 µM | Brc1ccc2cc(OCCCCN3CCCCC3)ccc2c1 |

Same assay, conditions: Table 7, effect of the aryl moiety; mean ± S.E. of three assays; * (drawing 9 6 pyrrolidine) mean of two; read-out: IC50 in μM (x ± SE)

| SMILES | IC50 |
| --- | --- |
| Clc1ccc(OCCCCN2CCCCC2)cc1Cl | 55.3 ± 10 µM |
| c1cc(OCCCCCCN2CCCC2)c2occc2c1 [drawing 9 6 pyrrolidine] | 204 ± 13.3 µM |
| c1cc(OCCCCN2CCCCC2)c2ccsc2c1 [drawing 8 4 piperdine, N-[4-(benzo[b]thien-4-yloxy)butyl]piperidine oxalate] | 1.8 ± 0.6 µM |
| c1cc(OCCCCN2CCCCC2)c2occc2c1 [drawing 9 4 piperdine] | 70.1 ± 8.6 µM |

Other lines, results leading:

| IC50 | SMILES |
| --- | --- |
| 0.88 ± 0.14 µM | c1cc(OCCCCN2CCCC2)c2ccsc2c1 [drawing 8 4 pyrrolidine, N-4-(benzo[b]thien-4-yloxy)butylpyrrolidine] |
| 0.22 ± 0.04 µM | c1cc(OCCCCCCN2CCCC2)c2ccsc2c1 [drawing 8 6 pyrrolidine, N-6-(benzo[b]thien-4-yloxy)hexylpyrrolidine] |
| 0.38 ± 0.1 µM | c1cc(OCCCCCCN2CCCCC2)c2ccsc2c1 [drawing 8 6 piperdine, N-6-(benzo[b]thien-4-yloxy)hexylpiperidine] |

Same assay, conditions: various concentrations

| effect on calmodulin-activated PDE | SMILES |
| --- | --- |
| none was found | O=C(O)C(=O)O [oxalic acid] |

Tested on: calmodulin-independent PDE
Assay: inhibition of calmodulin-independent activity of PDE
Assay type: biochemical, bovine
Details: various concentrations
Method: The assay was based on the incubation of calmodulin-deficient bovine heart PDE with [^3 H] cyclic adenosine monophosphate (cAMP), and a sufficient amount of bovine brain calmodulin (12.5 ng/100 μl) to give 70-80% activation of the enzyme. The resultant [^3 H] 5'-AMP formed was hydrolysed to [3H] adenosine upon incubation with the 5'-nucleotidase of the Western Diamondback Rattlesnake (Crotalus atrox). The nucleoside was then separated from the unreacted substrate using anion exchange resin. […] The degree of inhibition of calmodulin-activation of PDE in the presence of a range of drugs was expressed as a percentage of the activity of calmodulin-activated PDE in the absence of any drug. […] To give an indication of any inhibition of PDE by compounds, the activity of PDE in the presence of two concentrations of compound (approximately ten fold difference) were included in the assay. As there was no significant difference in the activity of PDE with or without the drug it was concluded that there was no inhibition of calmodulin-independent PDE by the drugs at the concentrations used. The percentage inhibition recorded for calmodulin-activated PDE was therefore due solely to the action of the drugs on the activity of calmodulin.

| SMILES | effect on PDE |
| --- | --- |
| O=C(O)C(=O)O [oxalic acid] | none was found |

Tested on: not listed separately
Assay: base strength (pka) of the terminal amine
Assay type: physicochemical
Details: Table 5, terminal amine

| SMILES | pKa |
| --- | --- |
| c1ccc2c(OCCCCN3CCOCC3)cccc2c1 [α 4 0] | 7.41 |
| c1ccc2c(OCCCCN3CCCCC3)cccc2c1 [α 4 CH2, -4-(naphth-1-yloxy)butylpiperidine oxalate] | 10.1 |

Now from value to molecule:

| pKa | SMILES |
| --- | --- |
| 7.33 | c1ccc2c(OCCCCn3ccnc3)cccc2c1 [imidazole] |
| 10.6 | NCCCCOc1cccc2ccccc12 [NH2] |
| 10.3 | c1ccc2c(OCCCCN3CCCC3)cccc2c1 [pyrrolidine, N-4-(naphth-1-yloxy)butylpyrrolidine] |
